Tests used:
[1] = test system: bovine serum albumin (BSA); experiment: Staining in polyacrylamide gels not containing SDS; details: 50 mM Tris-HCl pH 8.0
Procedure: (§1) A polyacrylamide gel was made containing a 10% separating gel and a 3% stacking gel having 50 mM Tris-HCl pH 8.0 as a buffer. A sample loading solution was made containing Promega Green 1 dissolved in 50 mM Tris-HCl, pH 8.0, 20% glycerol. Samples of bovine serum albumin (BSA) and carbonic anhydrase were added to the sample buffer. The samples were loaded onto the gel and the gel was assembled into a BioRad miniprotean II gel system. An electrode buffer solution of 50 mM Tris pH 8.0 was used to fill the buffer chamber and a voltage of 150 volts was applied to the apparatus. […] Therefore, the stain need not be used only in systems containing SDS.

carbonic anhydrase = experiment: Staining in polyacrylamide gels not containing SDS; details: 50 mM Tris-HCl pH 8.0
Procedure: as §1

[2] = test system: Promega Mid-Range Molecular Weight Markers; experiment: Detection of proteins during SDS-PAGE electrophoresis (dye in cathode buffer)
Description: Solutions for the formation and electrophoresis of proteins were made according to the instructions given in Experiments in Gene Fusions, Silhavy, Berman, Enquist, Cold Spring Harbor Laboratory Press, Cold Spring Harbor, N.Y. with the following changes:
a) The SDS concentration in the upper and lower gel buffer components were reduced to result in a 0.05% final SDS concentration in the gel. Thus, the composition of 4× upper gel buffer was 0.5M Tris-HCl, pH 6.8, 0.2 % (w/v) sodium dodecylsulfate (SDS) and the composition of 4× lower gel buffer was 1.5M Tris-HCl, pHS.8, 0.2 % (w/v) SDS.
b) The SDS concentration in the electrophoretic (electrode) buffer was reduced to 0.04% final concentration. Thus, 4× electrode (anode or cathode) buffer was made by dissolving 60 g Tris base, 288 g glycine, and 8 g SDS dissolved in water and then diluting with water to 5 liters. Another name sometimes used for "electrode" buffer is "running" buffer.
c) The SDS concentration in the 2× sample buffer was reduced to 1% final SDS concentration. Thus, 2× sample buffer was made by mixing 0.5 ml of betamercaptoethanol, 0.25 ml of 0.1% (w/v) bromophenol blue, 1 ml of 10 % (w/v) SDS, 3 ml of water, and 5.3 ml of 2× glycerol buffer. 2× glycerol buffer is made by mixing 12.5 ml of 4× upper gel buffer and 20 ml of glycerol and diluting the resulting solution to 60 ml with water. Another name sometimes used for "sample" buffer is "loading" buffer.
d) Electrophoresis was performed using a BIO-RAD miniprotein II electrophoresis apparatus and gels were poured such that i cm of space was present between the bottom of the loading wells and the separating gel.
In other electrophoresis experiments reported in this application, the buffers used were as described above in this example. In some cases, as in this example, where preparation of a solution of dye in 150 ml of cathode (or electrode) buffer is specified, an amount of stock solution of a dye was first added to 150 ml of cathode buffer and then 125 ml of the resulting solution was used to fill the cathode buffer chamber (which holds 125 ml) in the electrophoresis apparatus. In other cases, where addition of stock solution of dye to the cathode buffer is specified without reference to the volume of cathode buffer or with reference to such volume being "125 ml," the stock solution was added directly to 125 ml of cathode buffer already in the cathode buffer chamber.
The samples used were prepared with Promega Mid-Range Molecular Weight Markers solution (Promega Corp., Madison, Wis., USA, Catalog No. V5231) (referred to hereinafter as "Promega Mid-Range [Molecular Weight] Markers or Standards") diluted into Sample Buffer. […]

protein (BSA) = experiment: Sensitive solution protein quantitation assay; parameters: species or system bovine; details: 0.5M tris base, 3 hours
Procedure: In order to conclusively determine a format for the sensitive quantitation of protein in solution using Promega Green 1, Promega Green 1 stock solution was diluted at ratios of 1:250 (v/v) and 1:1000 (v/v) into 0.5M tris base containing 0, 5, 10, 20, 40, 60, 80, and 100 μg protein (BSA) per ml of solution. […]

[3] = Spectral analyses of Coomassie Blue R and Promega Green 1, 2, 3; type: physicochemical
Procedure: The three solutions of Promega Green 1, 2, and 3, from examples 1, 2 and 3 respectively, were diluted approximately 500 fold into a 1:1 solution of methanol:water. The spectra of the resulting solutions and of a 12 μg/ml solution of Coomassie Blue R (in 1:1 methanol:water) were recorded from 700 to 340 nm versus 1:1 methanol:water. […] All of the derivatives gave essentially identical spectra; however, the maximal absorbance of the diluted Promega Green i was about twice that seen for the other derivatives. The derivatives had two peak absorptions in the region of the spectrum scanned, a major peak at around 630 nm and a second peak at around 440 nm. The following absorbances were recorded at the peaks near 630 nm for the three Promega Green dye solutions (diluted 1:500 in 1:1 methanol:water): […]

Absorption (protein (BSA); dye 1:250, protein 0 μg/ml): 0.543 | Absorption (protein (BSA); dye 1:250, protein 5 μg/ml): 0.515 | Absorption (protein (BSA); dye 1:250, protein 10 μg/ml): 0.472 | Absorption (protein (BSA); dye 1:250, protein 20 μg/ml): 0.427 | Absorption (protein (BSA); dye 1:250, protein 40 μg/ml): 0.386 | Absorption (protein (BSA); dye 1:250, protein 60 μg/ml): 0.358 | Absorption (protein (BSA); dye 1:250, protein 80 μg/ml): 0.342 | Absorption (protein (BSA); dye 1:250, protein 100 μg/ml): 0.317 | Absorption (protein (BSA); dye 1:1000, protein 0 μg/ml): 0.079 | Absorption (protein (BSA); dye 1:1000, protein 5 μg/ml): 0.069 | Absorption (protein (BSA); dye 1:1000, protein 10 μg/ml): 0.059 | Absorption (protein (BSA); dye 1:1000, protein 20 μg/ml): 0.051 | Absorption (protein (BSA); dye 1:1000, protein 40 μg/ml): 0.048 | Absorption (protein (BSA); dye 1:1000, protein 60 μg/ml): 0.047 | Absorption (protein (BSA); dye 1:1000, protein 80 μg/ml): 0.044 | Absorption (protein (BSA); dye 1:1000, protein 100 μg/ml): 0.043 | Absorbance at the peak near 630 nm ([3]; diluted 1:500 in 1:1 methanol:water): 1.66 | maximal absorbance relative to the other derivatives ([3]; diluted approximately 500 fold): about twice
Compound: CCCCCCCC(=O)N(c1ccc(OCC)cc1)c1ccc(C(=C2C=CC(=[N+](CC)Cc3cccc(S(=O)(=O)[O-])c3)C=C2)c2ccc(N(CC)Cc3cccc(S(=O)(=O)O)c3)cc2)cc1 [Promega Green 1]
staining of BSA in gel without SDS [1]: seen to migrate through the gel as stained bands | staining of carbonic anhydrase in gel without SDS (carbonic anhydrase): seen to migrate through the gel as stained bands | lowest protein amount per band visible while the gel was running ([2]; 10% SDS-PAGE, dye in cathode buffer, white plastic card behind gel): 1.0 µg | lowest protein amount per band visible by the end of the run (most of the bands) ([2]; essentially clear background): 0.5 µg
